{
  "source": "the supplement of paper PMC12076712",
  "test_in_all_cases": "pIC50, kinobeads binding competition",
  "conditions_in_all_cases": "cell material: Jurkat lysate",
  "key": {"ACVR1": {"target": "T1, ACVR1 (UniProt Q04771)", "T1 sequence (whole entry)": "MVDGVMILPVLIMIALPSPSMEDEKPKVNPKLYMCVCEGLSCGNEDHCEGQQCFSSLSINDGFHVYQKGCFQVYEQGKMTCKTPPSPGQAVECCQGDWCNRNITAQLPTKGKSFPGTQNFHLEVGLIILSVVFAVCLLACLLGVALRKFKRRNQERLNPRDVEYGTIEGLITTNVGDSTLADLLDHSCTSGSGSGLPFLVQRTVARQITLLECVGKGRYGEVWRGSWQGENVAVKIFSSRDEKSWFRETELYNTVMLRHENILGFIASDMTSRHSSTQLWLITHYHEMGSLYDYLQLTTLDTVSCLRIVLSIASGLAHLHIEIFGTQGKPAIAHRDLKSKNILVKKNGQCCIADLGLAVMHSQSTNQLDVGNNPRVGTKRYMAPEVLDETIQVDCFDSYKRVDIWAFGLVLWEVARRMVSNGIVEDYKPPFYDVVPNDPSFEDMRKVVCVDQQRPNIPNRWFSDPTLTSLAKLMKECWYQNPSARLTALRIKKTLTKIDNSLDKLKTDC"}, "HIPK1": {"target": "HIPK1 (UniProt Q86Z02)", "sequence (Q86Z02 whole entry, looked up)": "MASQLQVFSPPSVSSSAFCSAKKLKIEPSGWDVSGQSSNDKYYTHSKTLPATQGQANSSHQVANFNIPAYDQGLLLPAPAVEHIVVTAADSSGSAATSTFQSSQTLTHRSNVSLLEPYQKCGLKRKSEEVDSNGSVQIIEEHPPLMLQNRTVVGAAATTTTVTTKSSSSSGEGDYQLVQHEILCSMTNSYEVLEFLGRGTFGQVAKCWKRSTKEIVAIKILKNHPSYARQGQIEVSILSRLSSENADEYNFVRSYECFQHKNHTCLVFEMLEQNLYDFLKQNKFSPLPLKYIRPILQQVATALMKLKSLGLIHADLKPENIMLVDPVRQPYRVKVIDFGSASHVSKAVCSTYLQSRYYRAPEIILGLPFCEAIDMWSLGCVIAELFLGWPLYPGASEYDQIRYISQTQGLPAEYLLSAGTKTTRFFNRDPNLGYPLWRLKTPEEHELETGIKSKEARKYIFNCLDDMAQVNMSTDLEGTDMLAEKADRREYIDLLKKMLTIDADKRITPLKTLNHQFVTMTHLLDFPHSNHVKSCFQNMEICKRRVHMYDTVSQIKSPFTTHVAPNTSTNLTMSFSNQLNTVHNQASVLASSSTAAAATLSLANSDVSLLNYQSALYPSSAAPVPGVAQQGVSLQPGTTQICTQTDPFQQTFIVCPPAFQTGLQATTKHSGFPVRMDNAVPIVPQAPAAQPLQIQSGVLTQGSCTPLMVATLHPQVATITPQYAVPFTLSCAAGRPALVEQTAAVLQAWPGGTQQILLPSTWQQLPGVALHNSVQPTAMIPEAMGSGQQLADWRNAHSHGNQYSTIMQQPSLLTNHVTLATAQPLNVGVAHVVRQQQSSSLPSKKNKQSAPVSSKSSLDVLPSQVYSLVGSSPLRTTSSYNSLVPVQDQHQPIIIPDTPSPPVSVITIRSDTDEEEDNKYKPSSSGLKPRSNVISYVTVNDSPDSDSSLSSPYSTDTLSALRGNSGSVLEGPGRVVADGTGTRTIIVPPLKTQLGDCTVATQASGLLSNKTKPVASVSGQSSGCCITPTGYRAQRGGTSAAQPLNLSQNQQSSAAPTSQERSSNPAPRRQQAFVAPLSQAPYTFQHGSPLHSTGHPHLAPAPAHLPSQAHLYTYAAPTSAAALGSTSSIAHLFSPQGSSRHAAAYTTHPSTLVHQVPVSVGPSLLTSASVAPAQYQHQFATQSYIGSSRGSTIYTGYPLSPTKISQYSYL"}, "INSR": {"target": "INSR (UniProt P06213)", "sequence (P06213 whole entry)": "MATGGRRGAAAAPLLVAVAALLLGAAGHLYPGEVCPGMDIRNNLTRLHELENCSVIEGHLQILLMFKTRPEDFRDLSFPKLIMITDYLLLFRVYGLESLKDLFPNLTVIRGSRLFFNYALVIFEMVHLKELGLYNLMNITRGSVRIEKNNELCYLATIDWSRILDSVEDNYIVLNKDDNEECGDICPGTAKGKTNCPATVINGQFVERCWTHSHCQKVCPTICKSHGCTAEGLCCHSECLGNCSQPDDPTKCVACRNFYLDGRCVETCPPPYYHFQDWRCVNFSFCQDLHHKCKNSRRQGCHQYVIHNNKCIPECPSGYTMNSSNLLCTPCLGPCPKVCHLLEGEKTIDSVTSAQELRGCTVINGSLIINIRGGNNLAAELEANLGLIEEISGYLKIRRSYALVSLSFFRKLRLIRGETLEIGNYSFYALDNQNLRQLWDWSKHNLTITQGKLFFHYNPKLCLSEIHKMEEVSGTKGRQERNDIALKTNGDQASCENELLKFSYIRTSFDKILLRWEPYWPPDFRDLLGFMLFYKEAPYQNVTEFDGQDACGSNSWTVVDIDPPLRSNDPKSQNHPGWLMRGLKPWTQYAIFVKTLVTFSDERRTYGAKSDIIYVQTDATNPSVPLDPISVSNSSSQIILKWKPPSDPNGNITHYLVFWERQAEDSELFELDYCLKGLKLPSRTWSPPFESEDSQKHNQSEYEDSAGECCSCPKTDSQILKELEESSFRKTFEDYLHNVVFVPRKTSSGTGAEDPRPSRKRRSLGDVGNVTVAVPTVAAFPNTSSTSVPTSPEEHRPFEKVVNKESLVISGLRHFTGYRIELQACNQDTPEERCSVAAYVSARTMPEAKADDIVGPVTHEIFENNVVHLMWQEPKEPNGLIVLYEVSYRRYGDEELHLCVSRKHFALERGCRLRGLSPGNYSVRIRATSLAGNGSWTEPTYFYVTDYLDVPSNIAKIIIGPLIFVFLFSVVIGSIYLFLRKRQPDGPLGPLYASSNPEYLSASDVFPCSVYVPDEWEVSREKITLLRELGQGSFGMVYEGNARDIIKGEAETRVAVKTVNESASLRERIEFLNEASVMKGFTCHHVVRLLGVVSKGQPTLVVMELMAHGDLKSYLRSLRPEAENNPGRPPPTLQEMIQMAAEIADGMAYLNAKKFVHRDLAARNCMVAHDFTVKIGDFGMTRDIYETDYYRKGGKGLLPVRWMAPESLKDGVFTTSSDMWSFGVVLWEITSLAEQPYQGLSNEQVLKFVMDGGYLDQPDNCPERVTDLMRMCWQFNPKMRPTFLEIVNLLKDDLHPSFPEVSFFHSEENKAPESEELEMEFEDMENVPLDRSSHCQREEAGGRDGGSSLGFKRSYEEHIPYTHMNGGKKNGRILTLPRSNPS"}, "IRAK4": {"target": "T2, IRAK4 (UniProt Q9NWZ3)", "T2 sequence (whole entry)": "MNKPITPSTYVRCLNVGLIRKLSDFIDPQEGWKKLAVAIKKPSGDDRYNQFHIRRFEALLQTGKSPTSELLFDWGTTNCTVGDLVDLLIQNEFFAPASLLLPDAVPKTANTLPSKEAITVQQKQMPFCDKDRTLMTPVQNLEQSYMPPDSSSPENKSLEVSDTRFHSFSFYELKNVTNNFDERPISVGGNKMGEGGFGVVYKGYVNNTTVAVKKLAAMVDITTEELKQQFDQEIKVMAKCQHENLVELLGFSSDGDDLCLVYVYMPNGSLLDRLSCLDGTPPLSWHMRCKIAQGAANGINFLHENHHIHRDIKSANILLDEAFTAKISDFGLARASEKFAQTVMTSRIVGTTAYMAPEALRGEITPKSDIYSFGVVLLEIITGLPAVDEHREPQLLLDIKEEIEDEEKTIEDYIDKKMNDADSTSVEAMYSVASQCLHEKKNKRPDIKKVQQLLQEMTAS"}, "TESK1": {"target": "TESK1 (UniProt Q15569)", "sequence (Q15569 whole entry, looked up)": "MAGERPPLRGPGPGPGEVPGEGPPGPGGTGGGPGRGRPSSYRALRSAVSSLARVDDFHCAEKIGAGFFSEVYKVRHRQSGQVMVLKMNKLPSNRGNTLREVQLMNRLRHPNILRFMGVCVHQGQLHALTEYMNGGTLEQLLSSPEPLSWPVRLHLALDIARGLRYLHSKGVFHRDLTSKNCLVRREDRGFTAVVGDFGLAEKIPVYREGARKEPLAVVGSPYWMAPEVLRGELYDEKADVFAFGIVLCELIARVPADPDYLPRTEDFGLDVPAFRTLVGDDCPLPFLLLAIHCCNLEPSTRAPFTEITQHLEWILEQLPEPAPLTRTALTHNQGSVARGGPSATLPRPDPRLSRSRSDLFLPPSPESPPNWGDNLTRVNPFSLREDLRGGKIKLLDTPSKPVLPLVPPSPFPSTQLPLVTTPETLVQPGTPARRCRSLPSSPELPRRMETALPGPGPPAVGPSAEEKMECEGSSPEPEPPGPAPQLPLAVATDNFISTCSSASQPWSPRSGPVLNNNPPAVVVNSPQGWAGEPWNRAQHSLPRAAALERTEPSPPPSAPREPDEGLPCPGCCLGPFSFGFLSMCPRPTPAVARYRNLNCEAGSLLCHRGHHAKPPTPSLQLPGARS"}, "TXK": {"target": "T3, TXK (UniProt P42681)", "T3 sequence (whole entry)": "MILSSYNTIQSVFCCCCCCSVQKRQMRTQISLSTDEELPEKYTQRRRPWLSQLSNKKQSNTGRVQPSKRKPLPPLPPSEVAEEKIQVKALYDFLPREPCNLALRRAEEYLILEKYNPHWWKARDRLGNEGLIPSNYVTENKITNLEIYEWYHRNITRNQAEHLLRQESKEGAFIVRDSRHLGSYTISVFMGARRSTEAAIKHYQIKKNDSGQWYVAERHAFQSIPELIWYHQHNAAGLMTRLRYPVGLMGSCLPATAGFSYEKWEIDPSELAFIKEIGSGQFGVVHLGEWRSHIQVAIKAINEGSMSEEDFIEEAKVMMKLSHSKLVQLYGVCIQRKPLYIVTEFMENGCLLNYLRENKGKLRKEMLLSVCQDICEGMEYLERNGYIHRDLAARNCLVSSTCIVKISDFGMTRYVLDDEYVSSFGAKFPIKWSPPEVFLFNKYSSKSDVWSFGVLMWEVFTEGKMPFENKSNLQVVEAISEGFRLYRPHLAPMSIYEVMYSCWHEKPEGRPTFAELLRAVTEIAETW"}, "UniProt O94804": {"target": "UniProt O94804", "sequence (O94804 whole entry, looked up)": "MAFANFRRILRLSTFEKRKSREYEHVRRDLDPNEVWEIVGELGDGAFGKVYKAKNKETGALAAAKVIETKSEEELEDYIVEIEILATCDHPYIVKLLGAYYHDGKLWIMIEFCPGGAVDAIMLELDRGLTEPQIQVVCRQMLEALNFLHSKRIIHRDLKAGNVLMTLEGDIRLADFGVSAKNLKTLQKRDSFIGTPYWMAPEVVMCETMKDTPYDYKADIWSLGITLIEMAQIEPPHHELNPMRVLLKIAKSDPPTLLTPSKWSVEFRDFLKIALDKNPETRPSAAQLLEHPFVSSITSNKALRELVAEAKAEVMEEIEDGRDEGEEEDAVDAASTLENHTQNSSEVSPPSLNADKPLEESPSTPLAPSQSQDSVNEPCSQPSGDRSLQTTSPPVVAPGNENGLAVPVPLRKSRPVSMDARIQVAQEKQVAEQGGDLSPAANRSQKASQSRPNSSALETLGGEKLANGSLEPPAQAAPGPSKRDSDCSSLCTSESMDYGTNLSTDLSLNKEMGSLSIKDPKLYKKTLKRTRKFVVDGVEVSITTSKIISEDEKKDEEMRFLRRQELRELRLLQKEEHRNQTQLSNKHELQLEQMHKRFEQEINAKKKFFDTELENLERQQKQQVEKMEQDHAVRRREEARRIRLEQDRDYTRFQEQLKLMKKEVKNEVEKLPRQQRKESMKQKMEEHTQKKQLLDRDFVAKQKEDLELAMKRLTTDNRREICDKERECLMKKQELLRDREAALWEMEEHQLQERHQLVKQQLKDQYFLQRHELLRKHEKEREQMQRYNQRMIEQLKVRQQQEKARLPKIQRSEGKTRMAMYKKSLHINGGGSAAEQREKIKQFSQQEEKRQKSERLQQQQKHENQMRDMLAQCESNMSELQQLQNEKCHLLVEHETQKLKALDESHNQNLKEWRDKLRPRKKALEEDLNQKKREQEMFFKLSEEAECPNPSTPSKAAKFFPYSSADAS"}, "UniProt Q8TF76": {"target": "T4, UniProt Q8TF76", "T4 sequence (whole entry)": "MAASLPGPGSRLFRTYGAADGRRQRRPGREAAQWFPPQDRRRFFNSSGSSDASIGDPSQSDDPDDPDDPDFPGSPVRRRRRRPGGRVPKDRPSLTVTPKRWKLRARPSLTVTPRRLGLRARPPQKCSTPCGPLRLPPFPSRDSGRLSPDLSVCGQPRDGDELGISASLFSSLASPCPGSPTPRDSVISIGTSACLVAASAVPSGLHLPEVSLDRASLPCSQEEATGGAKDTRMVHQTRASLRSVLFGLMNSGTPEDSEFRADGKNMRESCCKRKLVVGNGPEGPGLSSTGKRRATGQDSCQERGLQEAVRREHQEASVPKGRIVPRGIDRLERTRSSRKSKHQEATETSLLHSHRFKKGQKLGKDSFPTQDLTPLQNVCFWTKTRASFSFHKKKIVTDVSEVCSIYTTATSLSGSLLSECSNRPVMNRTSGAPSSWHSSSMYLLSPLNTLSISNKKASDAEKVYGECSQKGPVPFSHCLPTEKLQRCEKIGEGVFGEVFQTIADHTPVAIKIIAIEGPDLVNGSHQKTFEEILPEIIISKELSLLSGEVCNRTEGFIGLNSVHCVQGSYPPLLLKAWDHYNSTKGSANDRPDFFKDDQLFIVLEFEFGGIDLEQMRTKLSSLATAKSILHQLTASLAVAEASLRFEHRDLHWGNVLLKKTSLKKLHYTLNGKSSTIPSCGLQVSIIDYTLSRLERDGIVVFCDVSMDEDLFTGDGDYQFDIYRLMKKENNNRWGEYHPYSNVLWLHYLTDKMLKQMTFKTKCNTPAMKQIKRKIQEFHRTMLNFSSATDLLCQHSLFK"}},
  "data": [
    {"smiles": "CCc1cnn2c(NCc3ccc[n+]([O-])c3)cc(N3CCCC[C@H]3CCO)nc12", "note": "[dinaciclib]", "values": [
      {"measurement": "pIC50", "setting": "ACVR1", "result": "< 4.52"},
      {"measurement": "pIC50", "setting": "HIPK1", "result": 4.77},
      {"measurement": "pIC50", "setting": "INSR", "result": "< 4.52"},
      {"measurement": "pIC50", "setting": "IRAK4", "result": "< 4.52"},
      {"measurement": "pIC50", "setting": "TESK1", "result": "< 4.52"},
      {"measurement": "pIC50", "setting": "TXK", "result": "< 4.52"},
      {"measurement": "pIC50", "setting": "UniProt O94804", "result": "< 4.52"},
      {"measurement": "pIC50", "setting": "UniProt Q8TF76", "result": "< 4.52"}
    ]}
  ]
}
